# Measurements as given in US20230339952A1, “MACROCYCLIC HETEROCYCLES AND USES THEREOF” (Kumquat Biosciences Inc., priority 2022, published 2023).
# Read-outs that look alike come from different tables or passages of the source.
# Legend:
# SOS1 = SOS1 (Homo sapiens (Human), UniProt Q07889); assay: Ras-SOS interaction assay (HTRF), K-Ras G13D utilized; type: binding; conditions: K-Ras G13D
# [1] = tested on: NCI-H1975 (ATCC CRL-5908) cell line comprising an EGFR T790M L858R double mutation; assay: EGFR-SOS cellular inhibition assay (CellTiter-Glo cell proliferation); type: cell-based; conditions: Homo sapiens
# Protocol: A CellTiter-Glo (CTG) luminescent based assay (Promega) is used to assess growth of the cells, as a measurement of the ability of the compounds herein to inhibit EGFR signaling in the cells. […] The day after plating, cells are treated with a dilution series (e.g., a 9 point 3-fold dilution series) of the compounds herein (e.g., approximately 125 μL final volume per well).
# [2] = 120 h, NCI-H1975 cell proliferation, approximately 5 days, read-out: H1975 IC50
# [3] = read-out: IC50 value against SOS1
# SOS1, sequence (Q07889 564-1049): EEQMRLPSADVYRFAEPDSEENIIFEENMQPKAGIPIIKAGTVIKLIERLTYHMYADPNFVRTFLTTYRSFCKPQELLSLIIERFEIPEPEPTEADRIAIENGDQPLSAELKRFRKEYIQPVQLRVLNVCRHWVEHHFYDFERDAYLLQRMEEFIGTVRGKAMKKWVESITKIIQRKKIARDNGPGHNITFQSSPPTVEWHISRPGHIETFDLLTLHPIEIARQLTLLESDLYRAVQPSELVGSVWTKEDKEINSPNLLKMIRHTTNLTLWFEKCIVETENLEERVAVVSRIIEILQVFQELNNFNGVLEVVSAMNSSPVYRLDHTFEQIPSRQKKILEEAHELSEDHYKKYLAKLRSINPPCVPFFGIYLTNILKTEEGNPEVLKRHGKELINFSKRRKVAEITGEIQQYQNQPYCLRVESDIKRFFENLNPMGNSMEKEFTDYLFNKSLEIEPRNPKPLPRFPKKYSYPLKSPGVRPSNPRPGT
SMILES,IC50 (SOS1; read-out: SOS1 IC50),"IC50 [1, 2]",IC50 (SOS1; [3]),"IC50 ([1]; NCI-H1975, EGFR T790M L858R double mutation, read-out: IC50 in inhibiting growth of NCI-H1975 cell line)"
"C[C@H]1Nc2ncnc3c2cc(C2(C#N)CC2)c(=O)n3CCCCCC(O)CN2CCC(CC2)C(F)(F)c2cccc1c2 (stereo partly drawn) [Compound 58, 1-((4R)-2,2-difluoro-12-hydroxy-4-methyl-6^7-oxo-6^7,6^8-dihydro-5-aza-6(4,8)-pyrido[2,3-d]pyrimidina-1(4,1)-piperidina-3(1,3)-benzenacyclotridecaphane-6^6-yl)cyclopropane-1-carbonitrile]",< 100 nM,< 1000 nM,–,–
"CC(C)N1CCN(c2cc3c4ncnc3n(c2=O)CCCCCCCN2CCC(CC2)C(F)(F)c2cccc(c2F)[C@@H](C)N4)CC1 [Compound 21, (4R)-3^2,2,2-trifluoro-6^6-(4-isopropylpiperazin-1-yl)-4-methyl-6^7,6^8-dihydro-5-aza-6(4,8)-pyrido[2,3-d]pyrimidina-1(4,1)-piperidina-3(1,3)-benzenacyclotridecaphan-6^7-one]",< 100 nM,< 1000 nM,–,–
"C[C@H]1Nc2ncnc3c2cc(C2(C#N)CC2)c(=O)n3CCCCNC(=O)[C@H](C)N2CCC(CC2)C(F)(F)c2cccc1c2 [Compound 153, 1-((4R,13S)-2,2-difluoro-4,13-dimethyl-6^7,12-dioxo-6^7,6^8-dihydro-5,11-diaza-6(4,8)-pyrido[2,3-d]pyrimidina-1(4,1)-piperidina-3(1,3)-benzenacyclotridecaphane-6^6-yl)cyclopropane-1-carbonitrile]",< 100 nM,< 1000 nM,–,–
"C[C@H]1Nc2ncnc3c2cc(C2(C#N)CC2)c(=O)n3CC(=O)NCCCCN2CCC(CC2)C(F)(F)c2cccc1c2F [Compound 158, 1-((4R)-3^2,2,2-trifluoro-4-methyl-6^7,8-dioxo-6^7,6^8-dihydro-5,9-diaza-6(4,8)-pyrido[2,3-d]pyrimidina-1(4,1)-piperidina-3(1,3)-benzenacyclotridecaphane-6^6-yl)cyclopropane-1-carbonitrile]",< 100 nM,< 1000 nM,–,–
"C[C@H]1Nc2ncnc3c2cc(C2CCS(=O)(=O)CC2)c(=O)n3CCCCCCC(=O)N2CCC(CC2)C(F)(F)c2cccc1c2F [Compound 28, (4R)-6^6-(1,1-dioxidotetrahydro-2H-thiopyran-4-yl)-3^2,2,2-trifluoro-4-methyl-6^7,6^8-dihydro-5-aza-6(4,8)-pyrido[2,3-d]pyrimidina-1(4,1)-piperidina-3(1,3)-benzenacyclotridecaphane-6^7,13-dione]",< 100 nM,< 1000 nM,–,–
"C[C@H]1Nc2ncnc3c2cc(N2CCS(=O)(=O)CC2)c(=O)n3CCCOCCCCN2CC(C2)CC(F)(F)c2cccc1c2 [Compound 209, (3R)-1^6-(1,1-dioxidothiomorpholino)-5,5-difluoro-3-methyl-1^7,1^8-dihydro-12-oxa-2-aza-1(4,8)-pyrido[2,3-d]pyrimidina-7(3,1)-azetidina-4(1,3)-benzenacyclopentade-caphan-1^7-one]",< 100 nM,< 1000 nM,< 50 nM,< 500 nM
"Cc1nc2c3cc(C4(C#N)CC4)c(=O)n(c3n1)CCCCCN1CCC(CC1)C(F)(F)c1cccc(c1)[C@@H](C)N2 [Compound 169, 1-((4R)-2,2-difluoro-6^2,4-dimethyl-6^7-oxo-6^7,6^8-dihydro-5-aza-6(4,8)-pyrido[2,3-d]pyrimidina-1(4,1)-piperidina-3(1,3)-benzenacycloundecaphane-6^6-yl)cyclopropane-1-carbonitrile]",< 100 nM,< 1000 nM,–,–
"CC(C)N1CCN(c2cc3c4ncnc3n(c2=O)CC(=O)N(C)CCCCN2CCC(CC2)C(F)(F)c2cccc(c2)[C@@H](C)N4)CC1 [Compound 163, (4R)-2,2-difluoro-6^6-(4-isopropylpiperazin-1-yl)-4,9-dimethyl-6^7,6^8-dihydro-5,9-diaza-6(4,8)-pyrido[2,3-d]pyrimidina-1(4,1)-piperidina-3(1,3)-benzenacyclotridecaphane-6^7,8-dione]",< 100 nM,< 1000 nM,–,–
"Cc1nc2c3cc(C4(C#N)CC4)c(=O)n(c3n1)CCC/C=C\CN1CCC(CC1)C(F)(F)c1cccc(c1)[C@@H](C)N2 [Compound 166, 1-((4R,Z)-2,2-difluoro-6^2,4-dimethyl-6^7-oxo-6^7,6^8-dihydro-5-aza-6(4,8)-pyrido[2,3-d]pyrimidina-1(4,1)-piperidina-3(1,3)-benzenacyclododecaphan-10-en-6^6-yl)cyclopropane-1-carbonitrile]",< 100 nM,< 1000 nM,< 50 nM,–
"Cc1nc2c3cc(C4(C#N)CC4)c(=O)n(c3n1)CCCC/C=C\COCC(F)(F)c1cccc(c1F)[C@@H](C)N2 [Compound 105, 1-((3R,Z)-4^2,5,5-trifluoro-1^2,3-dimethyl-1^7-oxo-1^7,1^8-dihydro-7-oxa-2-aza-1(4,8)-pyrido[2,3-d]pyrimidina-4(1,3)-benzenacyclotetradecaphan-9-en-1^6-yl)cyclopropane-1-carbonitrile]",< 100 nM,< 1000 nM,–,–
"C[C@@H]1C(=O)NCCCCn2c(=O)c(C3CCS(=O)(=O)CC3)cc3c(ncnc32)N[C@H](C)c2cccc(c2)C(F)(F)C2CCN1CC2 [Compound 106, (4R,13R)-6^6-(1,1-dioxidotetrahydro-2H-thiopyran-4-yl)-2,2-difluoro-4,13-dimethyl-6^7,6^8-dihydro-5,11-diaza-6(4,8)-pyrido[2,3-d]pyrimidina-1(4,1)-piperidina-3(1,3)-benzenacyclotridecaphane-6^7,12-dione]",< 100 nM,< 1000 nM,–,–
"C[C@H]1Nc2ncnc3c2cc(C2CCS(=O)(=O)CC2)c(=O)n3CCCC/C=C/CN2CCC(CC2(C)C)C(F)(F)c2cccc1c2 (stereo partly drawn) [Compound 74, (4R,E)-6^6-(1,1-dioxidotetrahydro-2H-thiopyran-4-yl)-2,2-difluoro-1^2,1^2,4-trimethyl-6^7,6^8-dihydro-5-aza-6(4,8)-pyrido[2,3-d]pyrimidina-1(4,1)-piperidina-3(1,3)-benzenacyclotridecaphan-11-en-6^7-one]",< 100 nM,< 1000 nM,–,–
"C[C@H]1Nc2ncnc3c2cc(C2CCS(=O)(=O)CC2)c(=O)n3CCCCn2cc(nn2)CN2CCC(CC2)C(F)(F)c2cccc1c2 [Compound 160, (6R,Z)-8^6-(1,1-dioxidotetrahydro-2H-thiopyran-4-yl)-4,4-difluoro-6-methyl-8^7,8^8-dihydro-1^1H-7-aza-8 (4,8)-pyrido[2,3-d]pyrimidina-3(1,4)-piperidina-1(4,1)-triazola-5(1,3)-benzenacyclododecaphan-8^7-one]",< 100 nM,< 1000 nM,–,–
"C[C@H]1Nc2ncnc3c2cc(C2CCS(=O)(=O)CC2)c(=O)n3CCCCCCCN2CC(C2)CC(F)(F)c2cccc1c2 [Compound 161, (3R)-1^6-(1,1-dioxidotetrahydro-2H-thiopyran-4-yl)-5,5-difluoro-3-methyl-1^7,1^8-dihydro-2-aza-1(4,8)-pyrido[2,3-d]pyrimidina-7(3,1)-azetidina-4(1,3)-benzenacyclotetradecaphan-1^7-one]",< 100 nM,< 1000 nM,–,–
"C[C@H]1Nc2ncnc3c2cc(C2CCS(=O)(=O)CC2)c(=O)n3CCCCCC(C#N)CN2CCC(CC2)C(F)(F)c2cccc1c2 (stereo partly drawn) [Compound 114, (4R)-6^6-(1,1-dioxidotetrahydro-2H-thiopyran-4-yl)-2,2-difluoro-4-methyl-6^7-oxo-6^7,6^8-dihydro-5-aza-6(4,8)-pyrido[2,3-d]pyrimidina-1(4,1)-piperidina-3(1,3)-benzenacyclotridecaphane-12-carbonitrile]",< 100 nM,< 1000 nM,–,–
